Data set [1] concerns the target T1, GABA-A receptor; alpha-1/beta-2/gamma-2 (Homo sapiens) (UniProt P14867+P47870+P18507). Description: Activation of recombinant human GABA receptor alpha1beta2gamma2 expressed in CHO cells and measured for 120 secs by FMP dye based FLIPR assay. Format: cell-based.
Data set [2] can be described thus: Neurotoxicity in ip dosed Kunming mouse assessed as reduction in equilibrium measured after 30 mins by rotarod test. Format: toxicity, organism-based. As to conditions: in vivo. For orientation: The rotarod test checks motor coordination on a turning rod.
The test system of a further data set is Cortical neurone. Briefly: Antiepileptic actvity in C57BL/6 mouse Primary cortical neuron assessed as reduction in 4-AP-induced excitability measured for 8 mins by Fluo-8/AM staining based FLIPR assay. As to conditions: C57BL/6, Cortical neurone. Format: functional, cell-based.
For data set [3], the system named is Mus musculus. Description: Anticonvulsant activity in Kunming mouse assessed as reduction in MES-induced seizure at 30 to 300 mg/kg, ip measured after 30 mins. Format: functional, organism-based.
Data set [4] has as its system Mus musculus. Description: Anticonvulsant activity in Kunming mouse assessed as reduction in ScPTZ-induced seizure at 30 mg/kg, ip administered before 30 mins of ScPTZ stimulation. Format: functional, organism-based.
The subject of data set [5] is Mus musculus. Briefly: Anticonvulsant activity in Kunming mouse assessed as reduction in ScPTZ-induced seizure at 100 mg/kg, ip administered before 30 mins of ScPTZ stimulation. Format: functional, organism-based.
The test system of data set [6] is Mus musculus. Description: Anticonvulsant activity in Kunming mouse assessed as reduction in ScPTZ-induced seizure at 300 mg/kg, ip administered before 30 mins of ScPTZ stimulation. Format: functional, organism-based.
The subject of data set [7] is Mus musculus. Briefly: Anticonvulsant activity in ip dosed Kunming mouse assessed as reduction in ScPTZ-induced seizure administered before 30 mins of ScPTZ stimulation. It counts as functional. As to conditions: 0.5 h.
The nature of data set [8]: Protective index, ratio of TD50 for neurotoxicity in ip dosed Kunming mouse to ED50 for anticonvulsant activity in ip dosed Kunming mouse. It counts as toxicity, organism-based. As to conditions: in vivo, read-out: Ratio TD50/ED50.
Data set [9] deals with T1, GABA-A receptor; alpha-1/beta-2/gamma-2 (Homo sapiens). Description: (§1) Activation of recombinant human GABA receptor alpha1beta2gamma2 expressed in CHO cells in presence of GABA and measured for 120 secs by FMP dye based FLIPR assay. It counts as cell-based.
Data set [10] has as its target T2, GABA-A receptor; alpha-1/beta-2/gamma-2 (Homo sapiens, UniProt P14867+P18507+P47870).
T2 sequence (P14867 whole entry): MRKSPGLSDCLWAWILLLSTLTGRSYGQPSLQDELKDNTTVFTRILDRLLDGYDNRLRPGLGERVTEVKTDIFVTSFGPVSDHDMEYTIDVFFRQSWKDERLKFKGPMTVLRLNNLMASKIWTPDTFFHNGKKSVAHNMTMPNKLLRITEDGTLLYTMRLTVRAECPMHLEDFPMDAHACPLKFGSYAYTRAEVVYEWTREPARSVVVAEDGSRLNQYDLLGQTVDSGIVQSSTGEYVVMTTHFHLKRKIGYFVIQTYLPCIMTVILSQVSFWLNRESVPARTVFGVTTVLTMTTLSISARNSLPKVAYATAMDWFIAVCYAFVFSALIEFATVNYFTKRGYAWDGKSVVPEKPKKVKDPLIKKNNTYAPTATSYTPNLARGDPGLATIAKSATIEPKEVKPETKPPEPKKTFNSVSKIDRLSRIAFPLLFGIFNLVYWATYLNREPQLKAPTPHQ
T2 sequence (P47870 whole entry): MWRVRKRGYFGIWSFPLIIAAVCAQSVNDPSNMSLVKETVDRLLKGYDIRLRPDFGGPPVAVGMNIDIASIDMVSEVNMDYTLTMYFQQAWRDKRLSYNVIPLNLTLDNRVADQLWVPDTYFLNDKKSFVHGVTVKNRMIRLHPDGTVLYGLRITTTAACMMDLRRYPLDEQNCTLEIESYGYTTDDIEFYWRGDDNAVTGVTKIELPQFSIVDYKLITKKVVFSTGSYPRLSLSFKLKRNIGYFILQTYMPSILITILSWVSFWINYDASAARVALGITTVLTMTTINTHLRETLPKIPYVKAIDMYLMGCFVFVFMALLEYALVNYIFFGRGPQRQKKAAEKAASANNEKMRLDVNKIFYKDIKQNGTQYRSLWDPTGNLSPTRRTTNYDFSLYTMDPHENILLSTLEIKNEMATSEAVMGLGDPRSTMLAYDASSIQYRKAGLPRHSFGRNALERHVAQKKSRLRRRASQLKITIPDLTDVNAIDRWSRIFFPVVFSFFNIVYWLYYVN
T2 sequence (P18507 whole entry): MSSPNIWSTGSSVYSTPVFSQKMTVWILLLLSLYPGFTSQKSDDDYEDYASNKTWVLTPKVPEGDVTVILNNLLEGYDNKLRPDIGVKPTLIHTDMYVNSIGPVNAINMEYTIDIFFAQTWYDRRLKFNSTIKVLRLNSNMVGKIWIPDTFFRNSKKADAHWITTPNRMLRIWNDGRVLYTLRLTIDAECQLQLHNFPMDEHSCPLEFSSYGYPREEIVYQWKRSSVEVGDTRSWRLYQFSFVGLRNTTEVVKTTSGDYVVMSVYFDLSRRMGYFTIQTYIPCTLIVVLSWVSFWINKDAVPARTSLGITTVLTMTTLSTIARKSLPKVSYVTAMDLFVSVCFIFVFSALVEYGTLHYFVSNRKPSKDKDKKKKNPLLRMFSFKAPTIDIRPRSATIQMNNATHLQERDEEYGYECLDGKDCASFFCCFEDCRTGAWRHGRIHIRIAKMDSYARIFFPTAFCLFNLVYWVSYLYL
Described as §1. Format: cell-based.

The target in data set [11] is T2, GABA-A receptor; alpha-1/beta-2/gamma-2. Briefly: Positive allosteric modulation of recombinant human GABA receptor alpha1beta2gamma2 expressed in CHO cells at 30 uM in presence of GABA and measured for 120 secs by FMP dye based FLIPR assay (reference value: 0.25 +/- 0.03 uM). Format: cell-based.
Data set [12] is filed under the species Mus musculus. Description: Inhibition of sodium channel in C57BL/6 mouse primary cortical neurons at 10 uM by manual patch clamp electrophysiology method.
The species entered for data set [13] is Mus musculus. Description: Inhibition of sodium channel in C57BL/6 mouse Primary cortical neurons at 100 uM by manual patch clamp electrophysiology method. (In patch-clamp work, channel activity is measured electrically.)

Broadly, the TD50 is the dose at which the toxic effect under study appears in half of the subjects. As a reminder, the IC50 is the concentration at which inhibition is half-maximal. The term ED50 denotes the midpoint of the dose-response relation. By EC50 is commonly meant the concentration giving half of the maximal effect.

Activity calls are given as the source filed them. The rule behind the calls is not given here.

Take `Cc1ccc(-c2nc3[nH]c(Cc4ccccc4)cc(=O)n3n2)cc1`: the result (in data set [1]; with Mus musculus [3]) was inactive. In addition, in data set [2], the TD50 at 0.5 h came out at 372 mg/kg. Further, in the data set with Cortical neurone, the IC50 came out at 334 nM. In addition, the outcome with Mus musculus [4], in the data set with Mus musculus [5] and in the data set with Mus musculus [6] was Active. The ED50 with Mus musculus [7] is 41 mg/kg. For the same molecule, the selectivity ratio in data set [8] was determined as 9.09. Further, in data set [9], the Activity result is “Dose-dependent effect”. The EC50 came to 12000 nM in data set [10] and 240 nM in [11]. Moreover, the inhibition result in the data set listed under Mus musculus [12] was “inactive”. Further, the inhibition result in the data set listed under Mus musculus [13] was “Active”.

In the case of `O=c1cc(Cc2ccc(Cl)cc2)[nH]c2nc(-c3ccccc3)nn12`, the outcome (in [1]; in the data set on Mus musculus [3]) was inactive. The TD50 at 0.5 h in data set [2] was found to be 548 mg/kg. In addition, the IC50 in the data set with Cortical neurone was 452 nM. The result in the data set with Mus musculus [4], in the data set on Mus musculus [5] and in the data set with Mus musculus [6] was Active. In the data set on Mus musculus [7], the ED50 stood at 31.8 mg/kg. Moreover, the selectivity ratio in [8] was 17.2. Besides, the Activity entry in data set [9] is “Dose-dependent effect”. The EC50 in data set [10] turned out to be 3080 nM; in data set [11] it was 200 nM. The inhibition entry in the data set listed under Mus musculus [12] and in the data set filed under Mus musculus [13] was “inactive” in each case.

Source of the values: ChEMBL document CHEMBL4312021, “Discovery of [1,2,4]-triazolo [1,5-a]pyrimidine-7(4H)-one derivatives as positive modulators of GABAA1 receptor with potent anticonvulsant activity and low toxicity” (Eur J Med Chem, 2020).
